Assay results published in publication PMC8165693, “Sensing Enzyme Activation Heat Capacity at the Single-Molecule Level Using Gold-Nanorod-Based Optical Whispering Gallery Modes” (ACS Applied Nano Materials, 2021).

How the values were obtained:
[1] = biological target: T1, maltose-inducible α-glucosidase (MalL) (Bacillus subtilis, UniProt O06994); assay: ensemble steady-state kinetics, colorimetric assay in solution; assay type: biochemical; details: free enzyme in solution; temperature of this constant not given
T1 construct: full-length, recombinant, purified as in earlier work
T1 sequence (O06994 whole entry): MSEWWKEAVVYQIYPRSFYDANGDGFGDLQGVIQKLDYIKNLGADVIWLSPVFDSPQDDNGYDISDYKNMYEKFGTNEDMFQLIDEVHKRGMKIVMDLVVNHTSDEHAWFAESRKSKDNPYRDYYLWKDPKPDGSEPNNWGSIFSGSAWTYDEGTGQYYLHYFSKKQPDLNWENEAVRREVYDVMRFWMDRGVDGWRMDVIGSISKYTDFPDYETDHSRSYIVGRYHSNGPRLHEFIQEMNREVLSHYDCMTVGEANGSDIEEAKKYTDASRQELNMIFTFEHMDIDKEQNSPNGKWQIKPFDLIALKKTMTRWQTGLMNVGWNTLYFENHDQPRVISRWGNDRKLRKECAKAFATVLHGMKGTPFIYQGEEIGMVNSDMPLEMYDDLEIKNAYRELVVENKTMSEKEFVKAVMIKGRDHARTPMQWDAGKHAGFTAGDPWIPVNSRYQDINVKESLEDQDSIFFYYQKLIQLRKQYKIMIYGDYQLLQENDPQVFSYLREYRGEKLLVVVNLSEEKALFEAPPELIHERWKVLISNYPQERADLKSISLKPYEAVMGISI
Description: ensemble steady-state kinetics, colorimetric assay in solution on maltose-inducible α-glucosidase (MalL) | both the KM and ΔCP^‡ values are similar between WT MalL and S135C MalL

[2] = biological target: T2, maltose-inducible α-glucosidase (MalL) (Bacillus subtilis, UniProt O06994, S135C); assay: as above; assay type: biochemical; details: free enzyme in solution; temperature of this constant not given
T2 construct: full-length, recombinant, purified as in earlier work
T2 sequence (O06994 whole entry S135C): as the sequence (O06994 whole entry) above, with S135C counted along it

Substance: 4-nitrophenyl-β-D-glucopyranoside
- Km [1]: 108 ± 34.2 µM
- Km [2]: 141 ± 39.6 µM
